Publication PMC7071015, “Structure-Based Design, Synthesis and Bioactivity of a New Anti-TNFα Cyclopeptide” (Molecules, 2020)
Blank lines part the entries; values can stand above or below the molecule they belong to. Where a SMILES comes first, the peptide text is derived from it. Bridges are numbered along the chain shown (N, C = ends). Where no end group is shown, it is not given here.

How the values were obtained:
TNFα production = settings: stimulated monocytes; by promoting TNFα mRNA degradation; cited from earlier work
Excerpt: (§1) A range of biologics targeting TNFα have been licensed for the treatment of various inflammatory diseases, such as rheumatoid arthritis and Crohn’s disease. Although these agents have high potency and specificity, they are limited by their high production costs and potential immunogenicity. […] Also, their large molecular weight and low oral stability means their administration is only feasible through injection [[12 ...

TNFα [1] = settings: cited from earlier work
Procedure: Small molecule with anti-TNFα activity with compact 3D conformations containing trifluoromethylphenyl indole and chromone moieties have previously been designed. These compounds bind with high affinity (IC50 = 13 μM) to a hydrophobic binding pocket formed by six tyrosine residues (Y59, Y119 and Y151 from chain A and B) at the interface of TNFα dimer. Alternative binding pockets that bind small molecules have also been identified from the predicted TNFα-TNFR1 complex and these involve the residues H66, L67 and L71 of TNFR1 and residues R82, F90 and F127 in TNFα [18]. Recently, a small ...

recombinant human TNFα = molecular target: T1, recombinant human TNFα (Homo sapiens, UniProt P01375); assay: HEK-Blue TNFα sensor cell assay (NF-ĸB-induced SEAP reporter); format: cell-based
T1 construct: purchased InvivoGen
Procedure: In the assay, the cells are transfected with a secretory alkaline phosphatase reporter gene which is downstream of the NF-ĸB promoter and expressed in response to TNFα receptor activation. The alkaline phosphatase activity was then quantified by measuring the absorbance (λ = 620 nm) of coloured substrate. […] Activation of HEK-Blue TNFα cells by 1 ng/mL of human TNFα (InvivoGen) in the presence and absence of anti-hTNFα antibody (InvivoGen) were used as positive and negative controls in the anti-TNFα assay (Figure 3).
Peptides were dissolved in DMSO and solutions were diluted with the cell culture media so the final concentration of DMSO is 1%. Blank experiments with 1% DMSO were carried out.
TNFα sensor cells (HEK-Blue) were grown in Dulbecco’s Modified Eagle’s medium (DMEM) containing 4.5 g/L glucose and supplemented with 10% [v/v] heat-inactivated foetal bovine serum, 2 mM L-glutamine, 100 μg/mL normocin, 50 U/mL penicillin and 50 μg/mL streptomycin. Selective antibiotics added to the culture medium include 100 μg/mL zeocin and 1 μg/mL puromycin and avoided in initial cultures (first 2 passages). Maintenance cultures were kept in T-75 cell culture flasks and incubated in humidified incubator with 5% [v/v] […]
can then be quantified in cells supernatant (20 μL) by the reaction with 180 µL of QUANTI‐
Blue™, a reagent that turns from purple to blue in the presence of SEAP. Quantification of […]

HEK-Blue TNFα cells = settings: 24 h, OD 540 nm, at the concentration used to test anti-TNFα activity, one duplicate
Procedure: Therefore, this can be used as preliminary data for further biological evaluations.
This assay was performed with one duplicate, and the error bars show standard error.
The Vybrant®® MTT assay (Thermo Fisher Scientific) was performed following the manufacturer protocol. In this assay, cell permeable tetrazolium dye (yellow) was […] in viable cells to yield the water-insoluble formazan (purple) after incubation with HEK-TNFα cells. Formazan was then solubilised and quantified by measuring the UV absorbance at 540 nm.

[2] = qualitative; reason for NMR in methanol-d3
TNFα [3] = system: TNFα; set-up: method as in PMID 7756262; settings: K562 cells, 125I-labelled TNFα; cited from earlier work
[4] = system: menin-MLL protein–protein interaction; settings: cited from earlier work
Excerpt: (§2) This was achieved by producing a cyclic peptide with higher target specificity compared to small molecules and low potential of immunogenicity when compared with biologics. Protein loops are often involved in the biomolecular recognition of proteins. Loop peptidomimetics have previously been introduced as a new class of bioactive agents. The ...

[5] = system: protein kinase 2 regulatory subunit (CK2β) / catalytic subunit interaction; settings: cited from earlier work
Excerpt: as §2

[6] = cited from earlier work
Excerpt: as §1

[7] = molecular target: recombinant human tumour necrosis factor alpha (TNFα) (human) (UniProt P01375)
Sequence of recombinant human tumour necrosis factor alpha (TNFα) (human) (P01375 77-233): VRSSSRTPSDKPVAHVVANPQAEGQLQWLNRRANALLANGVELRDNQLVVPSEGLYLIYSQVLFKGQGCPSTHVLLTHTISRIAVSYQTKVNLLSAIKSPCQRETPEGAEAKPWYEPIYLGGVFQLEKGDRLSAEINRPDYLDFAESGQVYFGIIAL

T1 sequence (P01375 77-233 limits assumed): as the sequence (P01375 77-233) above

Molecule: O=C1CCC(N2C(=O)c3ccccc3C2=O)C(=O)N1 (stereo not shown) [Thalidomide]
effect on TNFα production (TNFα production): inhibits TNFα production

Molecule: Cc1ccc(C)c(Cn2c(CO)nc3ccccc32)c1 [UCB-6876]
effect on TNFα trimer in co-crystal structure (TNFα [1]): change in the spatial arrangement of the TNFα trimer and a loss of its 3-fold symmetry

Molecule: CC(C)C[C@@H]1NC(=O)[C@H](Cc2ccc(O)cc2)NC(=O)[C@H](CCC(N)=O)NC(=O)[C@H](CO)NC(=O)[C@H](Cc2c[nH]c3ccccc23)NC(=O)[C@@H](NC(=O)[C@@H](N)Cc2ccc(O)cc2)CSSC[C@@H](C(=O)N[C@@H](Cc2ccc(O)cc2)C(=O)O)NC1=O [WP9QY]
IC50 (recombinant human TNFα): 122 µM
cytotoxicity (MTT) (HEK-Blue TNFα cells): no significant cytotoxicity

concentration achieving inhibition of TNFα activity by 35% (recombinant human TNFα; 35% inhibition, 1 ng/mL recombinant human TNFα, 24 h, 1% DMSO, absorbance 620 nm, duplicates): 117.4 µM
solubility in water [2]: low solubility
Molecule: CC(C)C[C@@H]1NC(=O)[C@H](CC(N)=O)NC(=O)[C@H](CCC(=O)O)NC(=O)[C@H](CO)NC(=O)[C@H](Cc2c[nH]c3ccccc23)NC(=O)[C@H](Cc2ccc(O)cc2)NC(=O)[C@H](Cc2c[nH]cn2)NC(=O)CNC(=O)[C@@H]2CCCN2C(=O)[C@H](CCC(N)=O)NC(=O)[C@H](Cc2ccccc2)NC1=O [compound 1] (cyclo(HYWSENLFQPG))
cytotoxicity (MTT) (HEK-Blue TNFα cells): no significant cytotoxicity

Molecule: Cc1ccc(C(=O)Nc2ccc(S(=O)(=O)O)c3cc(S(=O)(=O)O)cc(S(=O)(=O)O)c23)cc1NC(=O)c1cccc(NC(=O)Nc2cccc(C(=O)Nc3cc(C(=O)Nc4ccc(S(=O)(=O)O)c5cc(S(=O)(=O)O)cc(S(=O)(=O)O)c45)ccc3C)c2)c1 [suramin]
effect on TNFα oligomer (TNFα [3]): Deoligomerisation of TNFα

Molecule: MCP-1
inhibition of menin-MLL interaction [4]: inhibitor of the menin-MLL protein–protein interaction

Molecule: cyclo-GCRLYGFKIHGCG [cyclic peptide derived from the regulatory subunit (CK2β) of protein kinase 2]
inhibition of CK2β interaction with catalytic subunit [5]: inhibits the interaction with the associated catalytic subunit

Molecule: infliximab: large molecule biologic targeting TNFα
adverse reaction [6]: associated with development of infusion reaction

B1: cyclic peptide 1 (WP9 loop peptidomimetic 1) (peptide)
peptide: HYWSENLFQPG
modifications: cyclised head to tail (N- to C-) via a proline-glycine linker
concentration that inhibits TNFα activity by 35% in HEK-Blue TNFα sensor cells (NF-kB-driven secreted alkaline phosphatase), 1 ng/mL human TNFα, 24 h; the pair said to be blocked is TNFα with TNFR-1 [7]: 117 µM

B2: WP9QY (peptide)
peptide: YCWSQYLCY
modifications: disulfide 2-8 (inferred)
concentration that inhibits TNFα activity by 35% in HEK-Blue TNFα sensor cells (NF-kB-driven secreted alkaline phosphatase), 1 ng/mL human TNFα, 24 h; the pair said to be blocked is TNFα with TNFR-1 [7]: 97.2 µM
